Experimental data as given in patent publication US8404672B2, “Substituted heterocyclic compounds” (Bristol-Meyers Squibb Company, priority 2009, dated 2013).

Assays:
[1] = test system: circulating lymphocytes; assay: Blood Lymphocyte Reduction Assay (BLR) in mice; type: in vivo; settings: BALB/c mice, oral, vs vehicle group
Procedure: Blood Lymphocyte Reduction Assay (BLR) in Rodents
Lewis rats or BALB/c mice were dosed orally with test article (as a solution or suspension in the vehicle) or vehicle alone (polyethylene glycol 300, “PEG300”). Blood was drawn at 4 hr and 24 h by retro-orbital bleeding. Blood lymphocyte counts were determined on an ADVIA® 120 Hematology Analyzer (Siemens Healthcare Diagnostics). The results were measured as a reduction in the percentage of circulating lymphocytes as compared to the vehicle treated group at the 4 hr and 24 hr measurement. The results represent the average results of all animals within each treatment group (n=3-4).
A compound of the present invention was tested in the Blood Lymphocyte Reduction assay (BLR) described hereinabove and the results are shown in Table D for rats and Table E for mice.

[2] = target: T1, S1P1 (membranes from S1P1/CHO cells) (Homo sapiens, UniProt P21453); assay: Method A: Receptor [35S] GTPγS Binding Assay, S1P1; type: biochemical; settings: Method A; S1P1/CHO membranes
T1 construct: expressed in transfected cells; host or cells: S1P1/CHO cells
T1 sequence (P21453 whole entry): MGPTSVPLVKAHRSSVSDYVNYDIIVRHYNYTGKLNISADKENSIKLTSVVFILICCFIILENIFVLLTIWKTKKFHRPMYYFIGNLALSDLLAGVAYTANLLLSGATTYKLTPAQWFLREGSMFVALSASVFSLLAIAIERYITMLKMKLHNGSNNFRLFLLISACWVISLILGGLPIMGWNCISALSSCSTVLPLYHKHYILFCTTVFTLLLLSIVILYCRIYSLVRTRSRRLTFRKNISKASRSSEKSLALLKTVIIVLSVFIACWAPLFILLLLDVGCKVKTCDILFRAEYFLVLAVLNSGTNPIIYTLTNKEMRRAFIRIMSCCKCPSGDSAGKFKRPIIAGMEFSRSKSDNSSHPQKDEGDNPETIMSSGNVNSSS
Procedure: Method A: Receptor [35S] GTPγS Binding Assays
Compounds were loaded in a 384 Falcon v-bottom plate (0.5 μl/well in a 3-fold dilution). Membranes prepared from S1P1/CHO cells or EDG3-Gal5-bla HEK293T cells were added to the compound plate (40 μl/well, final protein 3 μg/well) with MULTIDROP®. [^35S]GTP (1250 Ci/mmol, Perkin Elmer) was diluted in assay buffer: 20 mM HEPES, pH 7.5, 10 mM MgCl2, 150 mM NaCl, 1 mM EGTA, 1 mM DTT, 10 μM GDP, 0.1% fatty acid free BSA, and 10 μg/ml Saponin to 0.4 nM. 40 μl of the [^35S] GTP solution was added to the compound plate with a final concentration of 0.2 nM. The reaction was kept at room temperature for 45 min. At the end of incubation, all the mixtures in the compound plate were transferred to a 384 well FB filter plates via GPCR robot system. The filter plate was washed with water 4 times by using the modified manifold Embla plate washer and dried at 60° C. for 45 min. 30 μA of MicroScint 20 scintillation fluid was added to each well for counting at Packard TOPCOUNT®. EC50 is defined as the agonist concentration that corresponds to 50% of the Ymax (maximal response) obtained for each individual compound tested.
(§1) Compounds of the present invention and Comparative Compound A were tested in the Receptor [35S] GTPγS Binding Assays (Method A) and Receptor [35S] In some instances, the value is an average of multiple experiments where N is the number of experiments conducted that provided satisfactory dose response curves. When more than one batch of an example was tested, the value presented is from a batch which allowed a comparison of GTPγS S1P1 and GTPγS S1P3 in which the most number of experiments were performed. Preferably, the same batch was examined in Method A and Method B. Data was not averaged across different batches of an example compound.

[3] = target: T2, human S1P1 (Homo sapiens, UniProt P21453); assay: S1P1 Binding Assay (33P-S1P radioligand competition, CHO cell membranes); settings: membranes from CHO cells expressing human S1P1; 0.03 nM 33P-S1P; 60 min room temperature
T2 construct: expressed in transfected cells; host or cells: CHO cells
T2 sequence (P21453 whole entry): as above
Procedure: Membranes were prepared from CHO cells expressing human S1P1. Cells were dissociated in buffer containing 20 mM HEPES, pH 7.5, 50 mM NaCl, 2 mM EDTA and Protease Inhibitor cocktail (Roche), and disrupted on ice using the Polytron homogenizer. The homogenate was centrifuged at 20,000 rpm (48,000 g) and the supernatant was discarded. The membrane pellets were resuspended in buffer containing 50 mM HEPES, pH 7.5, 100 mM NaCl, 1 mM MgCl2, 2 mM EDTA and stored in aliquots at −80° C. after protein concentration determination.
Membranes ([…]) and 0.03 nM final concentration of ^33P—S1P ligand (1 mCi/ml, American Radiolabeled Chemicals) were added to the compound plates. Binding was performed for 60 min at room temperature, terminated by collecting the membranes onto GF/B filter plates, and radioactivity was measured by TOPCOUNT®. The competition data of the test compounds over a range of concentrations was plotted as percentage inhibition of radioligand specific binding. The IC50 is defined as the concentration of competing ligand needed to reduce specific binding by 50%.
Compounds of the present invention and Comparative Compound A were tested in the S1P1 binding assay described hereinabove and the results rounded to two digits, shown in Table A were obtained. In some instances, the value is an average of multiple experiments where N is the number of experiments conducted that provided satisfactory dose response curves. When more than one batch of an example was tested, the value presented is from the batch which allowed a comparison of GTPγS S1P1 and GTPγS S1P3 in Method A (Data shown in Table B). Data was not averaged across different batches of an example compound.

[4] = target: T3, S1P1 (membranes from S1P1 transfected CHO cells) (Homo sapiens, UniProt P21453); assay: Method B: Receptor [35S] GTPγS SPA Binding Assay, S1P1; type: biochemical
T3 construct: expressed in transfected cells; host or cells: CHO cells
T3 sequence (P21453 whole entry): as above
Procedure: Method B: Receptor [35S] GTPγS SPA Binding Assays
Membranes prepared from S1P1 or S1P3 transfected CHO cells ([…]) were incubated in 96-well white plates (CORNING® 3693) with test compounds diluted in DMSO, in 50 μl of reaction mixture containing 7.5 μl WGA-PVT beads (20 mg/ml), and 5 μM GDP, 20 mM HEPES pH 7.4, 100 mM NaCl, 1 mM EDTA, 5 mM MgCl2, 10 μg/ml saponin, 0.1% BSA, and 1 μM leupeptin. The assay was initiated with the addition of […] of 0.2 nM [^35S]-GTPγS (1250 Ci/mmol; NEN) in assay buffer. After 90 min incubation at room temperature, spin the plate at 1000 rpm for 5 min. The bound radionuclides were measured at TOPCOUNT®, expressed as % response relative to S1P (1 μM) activation. Data was analyzed using the four parameter logistic equation in Excel. The four parameters in the equation, Y=A+((B−A)/(1+((EC50/X)^D))), are described as following: A is the Y value (agonist activity) at the bottom plateau; B is the Y value at the top plateau; EC50 is the X value (agonist concentration) when the response is halfway between bottom and top; D is Hill coefficient. Curves were not generated for compounds having Ymax values were below 50%.
as §1

## O=C(O)C1CN(Cc2ccc(-c3noc(-c4onc(-c5ccccn5)c4C(F)(F)F)n3)cc2)C1 [Example 1, 1-(4-(5-(3-(Pyridin-2-yl)-4-(trifluoromethyl)isoxazol-5-yl)-1,2,4-oxadiazol-3-yl)benzyl)azetidine-3-carboxylic acid]
[1]; 0.008 mg/kg
  % reduction in lymphocytes at 4 hr.: 13%
  % reduction in lymphocytes at 24 hr.: 8%
[1]; 0.04 mg/kg
  % reduction in lymphocytes at 4 hr.: 67%
  % reduction in lymphocytes at 24 hr.: 39%
[1]; 0.2 mg/kg
  % reduction in lymphocytes at 4 hr.: 82%
  % reduction in lymphocytes at 24 hr.: 74%
[1]; 1.0 mg/kg
  % reduction in lymphocytes at 4 hr.: 83%
  % reduction in lymphocytes at 24 hr.: 77%
[2]
  EC50: 1.4 nM
[3]
  IC50: 0.21 nM
[4]; Method B SPA, S1P1 transfected CHO membranes
  EC50: 0.17 nM
[4]; ratio of GTPγS S1P3 EC50 to GTPγS S1P1 EC50, Method B
  GTPγS S1P3/S1P1 (Method B): 37,000
